Measurements published in publication PMC11532494 (Nature Communications, 2024).
pIC50, pKi: −log10 of the molar value. Values joined by “and” are separate entries in the source; they are usually repeats but may differ in a detail not shown here. Identical values can stand only once. Like-named read-outs stand apart in the source and are kept apart here. No end group written: not given here. *: point of attachment. AMC = Cc1cc(=O)oc2cc(N*)ccc12

Tests used:
BsAcuC (2c) [1] = biological target: T1, BsAcuC (2c) (Bacillus subtilis, UniProt P39067); assay: Dose-response inhibition assay; assay type: biochemical; details: dose-response inhibition assay
T1 construct: made in house; host or cells: E. coli BL21 (DE3)
T1 sequence (P39067 1-387): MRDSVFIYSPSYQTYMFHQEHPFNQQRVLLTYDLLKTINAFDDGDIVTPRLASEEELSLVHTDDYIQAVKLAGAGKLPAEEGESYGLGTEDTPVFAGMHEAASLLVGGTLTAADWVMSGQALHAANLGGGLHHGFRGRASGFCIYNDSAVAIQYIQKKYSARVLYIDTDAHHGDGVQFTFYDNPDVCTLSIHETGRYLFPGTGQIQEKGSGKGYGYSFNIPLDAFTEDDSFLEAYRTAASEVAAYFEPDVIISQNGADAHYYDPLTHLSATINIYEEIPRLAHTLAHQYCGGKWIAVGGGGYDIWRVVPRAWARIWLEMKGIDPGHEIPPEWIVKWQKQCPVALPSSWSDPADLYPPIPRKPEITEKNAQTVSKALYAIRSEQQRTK
Source text: Data was transformed to relative enzyme activity (%) compared to control wells without inhibitor, and fitted to sigmoidal functions with variable slope (Eqs. 3, 4 parameters, h: Hill slope) to afford IC50 values. Assuming fast-on/fast-off competitive inhibition, the Cheng–Prusoff equation (Eq. 4) was employed to transform IC50 data into inhibitory constants (Ki), with KM values as determined previously.3 Res.activity=Res.activitybottom+Res.activitytop−Res.activitybottom/1+10^(logIC50−logI)h 4 Ki=IC50/1+[S]/KM

KpHdaH (1b) [2] = biological target: T2, KpHdaH (1b) (Klebsiella pneumoniae, UniProt A0A377Z5F6); assay: biochemical
Target sequence in this assay (A0A377Z5F6 1-371): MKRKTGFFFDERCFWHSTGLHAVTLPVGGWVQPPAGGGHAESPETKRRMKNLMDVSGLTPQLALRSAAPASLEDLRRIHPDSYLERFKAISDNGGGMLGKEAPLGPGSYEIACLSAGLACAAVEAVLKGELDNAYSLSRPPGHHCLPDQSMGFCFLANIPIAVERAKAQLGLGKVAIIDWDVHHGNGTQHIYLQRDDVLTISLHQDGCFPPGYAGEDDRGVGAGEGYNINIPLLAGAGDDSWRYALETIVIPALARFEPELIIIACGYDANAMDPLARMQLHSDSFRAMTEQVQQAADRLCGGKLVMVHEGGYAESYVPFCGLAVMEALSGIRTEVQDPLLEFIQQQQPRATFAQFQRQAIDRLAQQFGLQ

LcApaH (3) [3] = biological target: T3, LcApaH (3) (Legionella cherrii, UniProt A0A0W0SGS1); assay: biochemical
Target sequence in this assay (A0A0W0SGS1 1-425): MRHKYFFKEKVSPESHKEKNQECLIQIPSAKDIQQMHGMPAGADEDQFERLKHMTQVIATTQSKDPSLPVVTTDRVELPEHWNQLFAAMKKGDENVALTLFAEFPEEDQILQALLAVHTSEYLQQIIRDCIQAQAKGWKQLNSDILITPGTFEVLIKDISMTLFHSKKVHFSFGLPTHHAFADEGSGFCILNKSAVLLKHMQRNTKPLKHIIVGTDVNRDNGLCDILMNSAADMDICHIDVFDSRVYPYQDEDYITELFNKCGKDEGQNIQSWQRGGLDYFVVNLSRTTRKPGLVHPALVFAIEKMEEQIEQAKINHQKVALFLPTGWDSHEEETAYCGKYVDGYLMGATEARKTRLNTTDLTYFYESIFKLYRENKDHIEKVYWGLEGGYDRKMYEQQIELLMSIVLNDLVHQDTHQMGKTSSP

LpApaH (3) [4] = biological target: T4, LpApaH (3) (Legionella pneumophila, UniProt A0A2S6EWV0); assay: biochemical
Target sequence in this assay (A0A2S6EWV0 1-426): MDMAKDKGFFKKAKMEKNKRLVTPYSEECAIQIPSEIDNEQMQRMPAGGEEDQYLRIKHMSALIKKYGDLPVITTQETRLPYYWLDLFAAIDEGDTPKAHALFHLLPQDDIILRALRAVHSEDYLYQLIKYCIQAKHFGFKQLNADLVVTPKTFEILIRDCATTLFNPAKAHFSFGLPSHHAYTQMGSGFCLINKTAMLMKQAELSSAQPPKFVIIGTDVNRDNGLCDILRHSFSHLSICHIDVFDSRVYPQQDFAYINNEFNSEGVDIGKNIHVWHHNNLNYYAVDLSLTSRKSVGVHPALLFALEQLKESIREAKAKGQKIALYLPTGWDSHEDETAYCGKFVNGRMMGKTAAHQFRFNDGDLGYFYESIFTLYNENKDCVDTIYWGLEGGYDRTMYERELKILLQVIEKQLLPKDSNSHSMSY

RwDmhA (1b) [5] = biological target: T5, RwDmhA (1b) (Rhizorhabdus wittichii, UniProt A0A067XIQ6); assay: biochemical
Target sequence in this assay (A0A067XIQ6 1-369): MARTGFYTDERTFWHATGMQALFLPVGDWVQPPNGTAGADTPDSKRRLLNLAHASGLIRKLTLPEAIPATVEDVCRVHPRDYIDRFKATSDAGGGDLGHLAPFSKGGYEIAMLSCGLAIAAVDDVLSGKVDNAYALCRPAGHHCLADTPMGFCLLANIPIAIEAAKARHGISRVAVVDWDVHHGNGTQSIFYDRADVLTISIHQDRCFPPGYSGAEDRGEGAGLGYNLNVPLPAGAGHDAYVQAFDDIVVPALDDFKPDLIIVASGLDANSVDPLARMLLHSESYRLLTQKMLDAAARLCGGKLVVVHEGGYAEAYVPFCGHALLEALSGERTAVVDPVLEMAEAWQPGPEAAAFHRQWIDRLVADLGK

BsAcuC (2c) [6] = biological target: T1, BsAcuC (2c); assay: Inhibitor screening assay (10 µM or 1 µM); assay type: biochemical
Source text: Data was transformed to relative enzyme activity (%) compared to control wells without inhibitors.

VsHdaH (1b) = assay type: biochemical, Vibrio sp.
RsPrpH (1b) = assay: Substrate screening assay (acyl-peptide-AMC); assay type: biochemical, Rhizorhabdus sp.
RwDmhA (1b) [7] = biological target: T5, RwDmhA (1b); assay type: biochemical
KpHdaH (1b) [8] = biological target: T2, KpHdaH (1b); assay type: biochemical
BsAcuC (2c) [9] = biological target: T1, BsAcuC (2c); assay: Substrate screening assay (acyl-peptide-AMC); assay type: biochemical
Protocol: (§1) Experiments with SIRT2 and SIRT5 were supplemented with NAD^+ (500 µM). Thereafter, a solution of trypsin (25 µL, 5.0 mg/mL; final concentration of 2.5 mg/mL) was added, and the development of the assay was allowed to proceed for 90 min at room temperature before fluorescence analysis. […] To this end, a single category is given to all conversions >48% on the heatmap. […] For the H4-derived peptide LGKbio no positive control was available.

VcHdaH (5b) = assay type: biochemical, Vibrio cholerae
PsApaH (4) = PsApaH (4) (Pseudomonas sp. M30-35, UniProt A0A1Y0KY79); assay type: biochemical
Protocol: as §1

LcApaH (3) [10] = biological target: T3, LcApaH (3); assay type: biochemical
LpApaH (3) [11] = biological target: T4, LpApaH (3); assay type: biochemical
Controls [12] = assay type: biochemical
Controls [13] = assay type: biochemical; remark: listed apart in the source
[14] = substrate screening, mean of two measurements
[15] = substrate screening, measurement 1 of two
[16] = substrate screening, measurement 2 of two

With `O=C(CCCCCCC(=O)Nc1ccccc1)NO` [SAHA, suberoylanilide hydroxamic acid] the “inhibition of BsAcuC (2c), in words” value (BsAcuC (2c) [1]) was “not detecting any inhibition”, the pIC50 (KpHdaH (1b) [2]; IC50, 60 µM QPKKac, 15 nM enzyme, 60 min, 37 °C) was 7.01 and the pKi (KpHdaH (1b) [2]; Ki, calculated using the Cheng–Prusoff equation, 60 µM QPKKac) was 7.65. The IC50 (KpHdaH (1b) [2]; Log[IC50(M)], decadic log of IC50, 60 µM QPKKac, 15 nM enzyme, 60 min, 37 °C) was 9.77e-08 M, the pIC50 (LcApaH (3) [3]; IC50, 40 µM LGKac, 0.5 nM enzyme, 30 min, 37 °C) was 6.09 and the pKi (LcApaH (3) [3]; Ki, calculated using the Cheng–Prusoff equation, 40 µM LGKac) was 6.51. For the same compound, the IC50 (LcApaH (3) [3]; Log[IC50(M)], decadic log of IC50, 40 µM LGKac, 0.5 nM enzyme, 30 min, 37 °C) was 8.13e-07 M, the pIC50 (LpApaH (3) [4]; IC50) was 6.17 and the pKi (LpApaH (3) [4]; Ki) was 6.64. It also gave an IC50 (LpApaH (3) [4]; Log[IC50(M)]) of 6.61e-07 M, a pKi (RwDmhA (1b) [5]) of 7.38 and a pIC50 (RwDmhA (1b) [5]; IC50, 60 µM QPKKac, 30 nM enzyme, 60 min, 37 °C) of 7.00. The IC50 (RwDmhA (1b) [5]; Log[IC50(M)], decadic log of IC50, 60 µM QPKKac, 30 nM enzyme, 60 min, 37 °C) was 1e-07 M, the remaining activity at 1 µM (BsAcuC (2c) [6]; 1 µM inhibitor, mean of n = 2, 40 µM LGKac) was 84.7% and the remaining activity at 1 µM (BsAcuC (2c) [6]; 1 µM inhibitor, single measurements (two columns), 40 µM LGKac, 60 min, 37 °C) was 83.2%. The remaining activity at 10 µM (BsAcuC (2c) [6]; 10 µM inhibitor, mean of n = 2, 40 µM LGKac) was 60.6%, the remaining activity at 10 µM (BsAcuC (2c) [6]; 10 µM inhibitor, single measurements (two columns), 40 µM LGKac, 60 min, 37 °C) was 56.2% and the remaining activity at 1 µM (BsAcuC (2c) [6]; BsAcuC (2c), inhibitor 1 µM, individual replicates) was 83.2%. It also gave a remaining activity at 1 µM (BsAcuC (2c) [6]; BsAcuC (2c), inhibitor 1 µM, mean) of 84.7%, a remaining activity at 10 µM (BsAcuC (2c) [6]; BsAcuC (2c), inhibitor 10 µM, individual replicates) of 56.2% and a remaining activity at 10 µM (BsAcuC (2c) [6]; BsAcuC (2c), inhibitor 10 µM, mean) of 60.6%. The “inhibition of BsAcuC (2c) in the initial screen, in words” value (BsAcuC (2c) [6]; pre-screening at 10 µM or 1 µM inhibitor) was “only weakly inhibited”.
For “QPKKlau (QPKK-{AMC}; not fully specified (residue 4); printed as QPKKlau; also: lauroyl-lysine (which Lys not given here); UniProt P04637 317-320, looked up, fragment)”, the “RFU means, VsHdaH (1b)” value (VsHdaH (1b); means of two measurements) was -74 RFU, the “RFU*2 means, VsHdaH (1b)” value (VsHdaH (1b); means of two measurements) was -148 RFU*2 and the “[AMC] (nM), VsHdaH (1b), means” value (VsHdaH (1b); [14]) was -72.27 nM. For the same compound, the “[AMC] (nM), VsHdaH (1b)” value (VsHdaH (1b); [15]) was -150.39 nM, the “[AMC] (nM), VsHdaH (1b)” value (VsHdaH (1b); [16]) was 5.86 nM and the “RFU means, RsPrpH (1b)” value (RsPrpH (1b)) was -143.5 RFU. The “RFU*2 means, RsPrpH (1b)” value (RsPrpH (1b)) was -287 RFU*2, the “[AMC] (nM), RsPrpH (1b), means” value (RsPrpH (1b)) was -140.14 nM and the “RFU means, RwDmhA (1b)” value (RwDmhA (1b) [7]) was -41 RFU. For the same compound, the “RFU*2 means, RwDmhA (1b)” value (RwDmhA (1b) [7]) was -82 RFU*2, the “[AMC] (nM), RwDmhA (1b), means” value (RwDmhA (1b) [7]) was -40.04 nM and the “RFU means, KpHdaH (1b)” value (KpHdaH (1b) [8]; means of two measurements) was -136.5 RFU. For the same compound, the “RFU*2 means, KpHdaH (1b)” value (KpHdaH (1b) [8]; means of two measurements) was -273 RFU*2, the “[AMC] (nM), KpHdaH (1b), means” value (KpHdaH (1b) [8]; [14]) was -133.30 nM and the “[AMC] (nM), KpHdaH (1b)” value (KpHdaH (1b) [8]; [15]) was -172.85 nM. For the same compound, the “[AMC] (nM), KpHdaH (1b)” value (KpHdaH (1b) [8]; [16]) was -93.75 nM, the “RFU means, BsAcuC (2c)” value (BsAcuC (2c) [9]; means of two measurements) was 849.5 RFU and the “RFU*2 means, BsAcuC (2c)” value (BsAcuC (2c) [9]; means of two measurements) was 1699 RFU*2. For the same compound, the “[AMC] (nM), BsAcuC (2c), means” value (BsAcuC (2c) [9]; [14]) was 829.59 nM, the “RFU*2, BsAcuC (2c)” value (BsAcuC (2c) [9]; two measurements, single values) was 2008 RFU*2 and 1390 RFU*2 and the “RFU means, VcHdaH (5b)” value (VcHdaH (5b); means of two measurements) was -82 RFU. For the same compound, the “RFU*2 means, VcHdaH (5b)” value (VcHdaH (5b); means of two measurements) was -164 RFU*2, the “[AMC] (nM), VcHdaH (5b), means” value (VcHdaH (5b); [14]) was -80.08 nM and the “RFU means, PsApaH (4)” value (PsApaH (4); means of two measurements) was 131 RFU. The “RFU*2 means, PsApaH (4)” value (PsApaH (4); means of two measurements) was 262 RFU*2, the “[AMC] (nM), PsApaH (4), means” value (PsApaH (4); [14]) was 127.93 nM and the “[AMC] (nM), PsApaH (4)” value (PsApaH (4); [15]) was 191.41 nM. For the same compound, the “[AMC] (nM), PsApaH (4)” value (PsApaH (4); [16]) was 64.45 nM, the “RFU means, LcApaH (3)” value (LcApaH (3) [10]) was 6.5 RFU and the “RFU*2 means, LcApaH (3)” value (LcApaH (3) [10]) was 13 RFU*2. For the same compound, the “[AMC] (nM), LcApaH (3), means” value (LcApaH (3) [10]) was 6.35 nM, the “RFU means, LpApaH (3)” value (LpApaH (3) [11]) was 10.5 RFU and the “RFU*2 means, LpApaH (3)” value (LpApaH (3) [11]) was 21 RFU*2. The “[AMC] (nM), LpApaH (3), means” value (LpApaH (3) [11]) was 10.25 nM, the “RFU means, controls” value (Controls [12]) was 11610 RFU and the “RFU*2, controls” value (Controls [12]) was 21150 RFU*2 and 25290 RFU*2. The “RFU*2 means, controls” value (Controls [12]) was 23220 RFU*2, the “RFU, controls” value (Controls [12]) was 10575 RFU and 12645 RFU and the “[AMC] (nM), controls, means” value (Controls [13]) was 11337.89 nM.
